Measured values published in PubChem BioAssay (NCI).
Where “and” joins values, the source holds several entries; their conditions need not be identical. Equal entries are not always repeated.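 These data come from cells grown in 96-well plates and exposed to compound for 48 hours at five concentrations. GI50 = concentration required for 50% inhibition of growth. TGI: concentration producing complete growth inhibition.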 Where a SMILES comes first, the peptide text is derived from it. Bridges are numbered along the chain shown (N, C = ends). [ ]: non-standard residue; d: D form. Aib = CC(C)(N)C(=O)O; βAla = NCCC(=O)O

Columns and labels:
Test in all cases: DTP human tumour cell line panel, 48 h
A549 NSCLC = system: A549 NSCLC
CAKI-1 renal = system: CAKI-1 renal
DMS 114 small cell lung = system: DMS 114 small cell lung
DMS 273 small cell lung = system: DMS 273 small cell lung
HOP-18 NSCLC = system: HOP-18 NSCLC
IGROV1 ovarian = system: IGROV1 ovarian
KM20L2 colon = system: KM20L2 colon
LXFL 529 NSCLC = system: LXFL 529 NSCLC
M19-MEL melanoma = system: M19-MEL melanoma
SK-MEL-2 melanoma = system: SK-MEL-2 melanoma
SNB-19 CNS = system: SNB-19 CNS
SNB-78 CNS = system: SNB-78 CNS
UO-31 renal = system: UO-31 renal
XF 498 CNS = system: XF 498 CNS
MCF7 breast = system: MCF7 breast
MDA-MB-435 = system: MDA-MB-435

Row | SMILES | TGI (A549 NSCLC) | TGI (CAKI-1 renal) | TGI (DMS 114 small cell lung) [µM] | TGI (DMS 273 small cell lung) [µM] | TGI (HOP-18 NSCLC) [µM] | TGI (IGROV1 ovarian) | TGI (KM20L2 colon) [µM] | TGI (LXFL 529 NSCLC) [µM] | TGI (M19-MEL melanoma) [µM] | TGI (SK-MEL-2 melanoma) | TGI (SNB-19 CNS) | TGI (SNB-78 CNS) [µM] | TGI (UO-31 renal) | TGI (XF 498 CNS) [µM] | TGI (MCF7 breast) | TGI (MDA-MB-435) | GI50 (A549 NSCLC) | GI50 (MCF7 breast) | GI50 (MDA-MB-435) | GI50 (SK-MEL-2 melanoma)
1 | COc1cccc2c1c1ccc3c(c1n2C)C(=O)C=CC3=O | > 100 µM | 11.6 µM | 43.4 | 32.2 | 29 | > 100 µM | > 100 | 24.4 | 2.52 | 33 µM | > 100 µM | 42.5 | 44.2 µM | 29.4 | – | – | – | – | – | –
2 | COc1cc(/C=C2\C(=O)N(C(=O)Cc3ccccc3)N=C2C)cc(OC)c1OC | > 100 µM | > 100 µM | > 100 | > 100 | > 100 | – | – | – | > 100 | > 100 µM | > 100 µM | > 100 | > 100 µM | > 100 | – | – | – | – | – | –
3 | C=C(C)C12CC3CC(/C(=N/O)C(C1)/C3=N\O)[C@@]2(C)O (some centres undefined) | > 100 µM | > 100 µM | > 100 | > 100 | – | > 100 µM | > 100 | > 100 | > 100 | > 100 µM | > 100 µM | > 100 | > 100 µM | – | – | – | – | – | – | –
4 | CC(=O)OC[C@H]1CN(OC(C)=O)C[C@@H](n2cc(C)c(=O)[nH]c2=O)O1 | > 100 µM | > 100 µM | – | – | – | > 100 µM | – | – | – | > 100 µM | > 100 µM | – | > 100 µM | – | > 100 µM | > 100 µM | – | – | – | –
5 | OC12c3ccccc3C1CCCCC2N1CCCC1 (centres undefined) | > 100 µM | – | > 100 | > 100 | > 100 | – | > 100 | > 100 | > 100 | > 100 µM | > 100 µM | > 100 | > 100 µM | – | – | – | – | – | – | –
6 | CCn1cc2c(=O)n3ncn(-c4ccc(Br)cc4)c3nc2n1 | > 100 µM | > 100 µM | – | – | – | > 100 µM | – | – | – | > 100 µM | > 100 µM | – | > 100 µM | – | > 100 µM | > 100 µM | – | – | – | –
7 | CC1(C)NC(=O)C(NC(=O)C(N)CC(=O)O)CCCCNC(=O)CCNC1=O (centres undefined) (H-DK[Aib][βAla]; lactam 2-C; configuration not given here) | > 100 µM | > 100 µM | – | – | – | > 100 µM | – | – | – | > 100 µM | > 100 µM | – | > 100 µM | – | > 100 µM | > 100 µM | – | – | – | –
8 | CO/C=C/C=C(\C#N)C(=O)OC | > 100 µM | > 100 µM | – | – | – | > 100 µM | – | – | – | > 100 µM | > 100 µM | – | > 100 µM | – | > 100 µM | > 100 µM | – | – | – | –
9 | NC1N=C(c2ccc(Cl)cc2)C2=C(N1)c1ccccc1CC2 (centres undefined) | > 80.7 µM | > 100 µM | – | – | – | > 57.1 µM | – | – | – | 46.6 µM | > 100 µM | – | > 88.7 µM | – | > 46.8 µM | > 22.6 µM | – | – | – | –
10 | COc1cc(OC)cc(OCc2nc3cc(C(F)(F)F)ccc3nc2-c2ccccc2)c1 | > 100 µM | > 100 µM | – | – | – | > 100 µM | – | – | – | > 100 µM | > 100 µM | – | > 100 µM | – | > 100 µM | > 100 µM | – | – | – | –
11 | N#C/C(=C\c1ccc(F)cc1)c1nc(-c2cc3ccccc3oc2=O)cs1 | > 100 µM | > 100 µM | – | – | – | 85 µM | – | – | – | > 100 µM | 41.1 µM | – | 97.9 µM | – | > 100 µM | > 100 µM | – | – | – | –
12 | COc1ccc(N=c2oc3ccccc3cc2C(N)=O)cc1 | > 100 µM | 32.4 µM | – | – | – | > 100 µM | – | – | – | > 100 µM | 24.7 µM | – | 14.8 µM | – | 87.7 µM | > 100 µM | – | – | – | –
13 | CC1CC(N)=C(C#N)C1(C#N)C#N (centres undefined) | > 100 µM | 59.7 µM | – | – | – | > 100 µM | – | – | – | > 100 µM | > 100 µM | – | > 100 µM | – | > 100 µM | > 100 µM | – | – | – | –
14 | CC(C)[N+]([O-])(CCCNc1c2ccccc2nc2cccc([N+](=O)[O-])c12)C(C)C | 2.53 µM | 6.2 µM | – | – | – | 0.488 µM | – | – | – | 1.24 µM | 5.17 µM | – | 1.35 µM | – | 14.9 µM | 0.0758 µM | – | – | – | –
15 | O=C1/C(=C\c2ccc(Cl)cc2)N=C(c2ccccc2)N1n1c(=O)cn[nH]c1=S | > 100 µM | > 100 µM | – | – | – | 66.1 µM | – | – | – | > 100 µM | > 100 µM | – | > 100 µM | – | 35.4 µM | 87 µM | – | – | – | –
16 | COc1ccc(S(=O)(=O)N2C(=O)CCC2C(=O)NC(N)=O)cc1 (centres undefined) | > 100 µM | > 100 µM | – | – | – | > 100 µM | – | – | – | > 100 µM | > 100 µM | – | > 100 µM | – | > 100 µM | > 100 µM | – | – | – | –
17 | COc1ccc2c3c1OC1C(F)C=CC4(O)C(C2)NCCC314 (centres undefined) | 23.1 µM | 6.56 µM | – | – | – | 20.3 µM | – | – | – | 6.65 µM | 5.78 µM | – | 4.62 µM | – | 5.25 µM | 3.34 µM | – | – | – | –
18 | CCN1CCC(O)(c2ccc(Oc3ccc(Cl)cc3)cc2)C(C(=O)c2ccc(Oc3ccc(Cl)cc3)cc2)C1 (centres undefined) | 20.3 µM | 27.3 µM | – | – | – | 23.5 µM | – | – | – | 36.9 µM | 29.3 µM | – | 28.1 µM | – | 19.9 µM | 38.8 µM | – | – | – | –
19 | CSC12c3cc(C)n(-c4ccc([N+](=O)[O-])cc4)c3CC(C)(C)CN1C(=O)C2Oc1ccccc1 (centres undefined) | > 100 µM | > 100 µM | – | – | – | > 100 µM | – | – | – | > 100 µM | > 100 µM | – | > 100 µM | – | > 100 µM | > 100 µM | – | – | – | –
20 | COc1ccc(CNc2cnc3cc(N)ccc3n2)cc1 | > 100 µM | – | > 100 | > 100 | – | > 100 µM | > 100 | > 100 | > 100 | > 100 µM | > 100 µM | > 100 | > 100 µM | > 100 | – | – | – | – | – | –
21 | N#CC(c1ccccc1)N(CCCCCCN(C(=O)c1ccccc1)C(C#N)c1ccccc1)C(=O)c1ccccc1 (centres undefined) | > 100 µM | > 100 µM | – | – | – | > 100 µM | – | – | – | 66.3 µM | > 100 µM | – | 46.1 µM | – | > 100 µM | 73.6 µM | – | – | – | –
22 | COc1ccc2c(c1)Cc1c(NCCN(C)C)ccc(C(=O)NCCCN(C)CCCNC(=O)c3ccc(NCCN(C)C)c4c3Nc3ccc(OC)cc3C4)c1N2 | 0.512 µM | 11.9 µM | – | – | – | 3.95 µM | – | – | – | 0.226 µM | 1.13 µM | – | 14.2 µM | – | 0.615 µM | 0.191 µM | – | – | – | –
23 | Cc1cc(S(=O)(=O)NC2=NCc3nc4ccccc4n32)c(S)cc1Cl | 83.2 µM | > 100 µM | – | – | – | 69.7 µM | – | – | – | 29.2 µM | > 100 µM | – | 63.6 µM | – | 70.1 µM | 82.8 µM | – | – | – | –
24 | CC1OC(OC2C(OC(=O)[C@]34CCC(C)(C)C[C@H]3C3=CC[C@@H]5[C@@]6(C)CC[C@H](OC7OC(C(=O)O)C(O)C(O)C7O)C(C)(C)[C@@H]6CC[C@@]5(C)[C@]3(C)C[C@H]4O)OCC(O)C2O)C(O)C(O)C1OC1OCC(O)C(O)C1O (some centres undefined) | 25.3 µM and 20.4 µM | 25.6 µM and 21.6 µM | – | – | – | 31.5 µM and 27.8 µM | – | – | – | 30.4 µM and 12.4 µM | 25.8 µM and 23.8 µM | – | 24.1 µM and 20.1 µM | – | 29.4 µM and 17.8 µM | 30.3 µM and 18.2 µM | 11.8 µM and 5.48 µM | 14.4 µM and 5.24 µM | 16 µM and 5.32 µM | 15.4 µM and 3.47 µM
25 | CCOC1OC(COC(=O)C(C)(C)C)C(O)CC1n1cc(C)c(=O)[nH]c1=O (centres undefined) | > 100 µM | > 100 µM | – | – | – | > 100 µM | – | – | – | > 100 µM | > 100 µM | – | > 100 µM | – | > 100 µM | > 100 µM | – | – | – | –
26 | N#CC12C(=O)N3C(=NC(c4ccco4)NC3c3ccco3)C1(C#N)C(c1ccco1)NC1=C2CCCC1 (centres undefined) | > 100 µM | > 100 µM | – | – | – | > 100 µM | – | – | – | > 100 µM | > 100 µM | – | > 100 µM | – | > 100 µM | > 100 µM | – | – | – | –
27 | O=c1nc2n3c4c(cccc4nc-2c(=O)[nH]1)CCC3 | > 100 µM | > 100 µM | – | – | – | > 100 µM | – | – | – | > 100 µM | > 100 µM | – | > 100 µM | – | > 100 µM | > 100 µM | – | – | – | –
28 | Cc1cc(NC2=CC(=O)C(=O)c3ccccc32)no1 | 19.4 µM | 17.1 µM | – | – | – | 21.8 µM | – | – | – | 10.4 µM | 31.9 µM | – | 20.4 µM | – | 7.66 µM | 3.34 µM | – | – | – | –
29 | CNC(=O)C(C)NC(=O)C(Cc1ccccc1)NC(=O)c1ccccc1 (centres undefined) | > 100 µM | > 100 µM | – | – | – | > 100 µM | – | – | – | > 100 µM | > 100 µM | – | > 100 µM | – | > 100 µM | > 100 µM | – | – | – | –
30 | COC(=O)CCC(=O)c1ccc2c(c1)CCC2 | > 100 µM | > 100 µM | – | – | – | > 100 µM | – | – | – | > 100 µM | > 100 µM | – | > 100 µM | – | > 100 µM | > 100 µM | – | – | – | –
